From patent US20240109877A1, “PYRIMIDINES FOR DEGRADING BRUTON'S TYROSINE KINASE” (AbbVie Inc., priority 2022, published 2024)

What was measured:
[1] = molecular target: BTK protein in human whole blood (Homo sapiens (Human), UniProt Q06187); assay: Btk protein in human whole blood MSD ELISA based assay (Btk degradation); assay type: cell-based; conditions: human whole blood from healthy donors, 6 hours at 37° C., half maximal degradation concentration; read-out: hWB BTK DC50
Procedure: Btk protein degradation was tested using an Meso Scale Discovery-ELISA system (MSD-ELISA): (1) Test compounds were added to human whole blood; (2) human whole blood cells treated with test compounds were lysed; (3) lysed cells were treated with capture antibody, an antibody to Btk; (4) lysed cells were treated with […] to Btk; and (5) lysed cells were treated with anti-mouse antibody (tagged).
Specifically, about 80 μl of fresh human whole blood from healthy donors was transferred into each well of a 96-well V-bottom plate (Costar, Cat No.3894). Using a TECANTM D300e Digital Dispenser (Tecan)), 1:4 serially diluted compounds [(8 pt assay) in DMSO solution (final 0.2%) starting at 3 μM top concentration], were added in duplicate. Thereafter, plates were placed in a 37° C. incubator and incubated for 6 hours.
At the end of incubation, 80 μl of 2× CST lysis buffer (Cell Signaling Technology, Cat No. 9803), prepared from a 10× stock solution, was added per well to lyse the blood. Plates were then sealed with a plate sealer and the samples were frozen overnight at −80° C.
Total amount of BTK protein remaining in the blood samples after compound treatment was measured using MSD-ELISA. After thawing the frozen plates, blood lysates were mixed thoroughly and transferred to small spot high-bind MSD plates (Meso Scale Discovery, Cat No. L45XB-3) and coated with capturing antibody, rabbit anti-human BTK (D3H5) (Cell Signaling Technology, Cat No. 8547CF). Thereafter, primary detection antibody, mouse anti-human BTK monoclonal antibody, (BD Biosciences, Cat No. 611117) and secondary detection antibody, anti-mouse SULFO-TAG (Meso Scale Discovery, Cat No. R32AC-1) were added. The assay plates were read on an MSD S600 plate reader by the addition of 2× MSD read buffer (Meso Scale Discovery, R92TC-1). All reagent transfers, including blood lysis, was conducted using a Biomed i7 liquid handler. From the dose response curves, DC50 values were calculated by averaging data from duplicate experiments. and Curve fitting was done by non-linear regression using GraphPad Prism. The DC50 values are reported in Table 2 in the hWB BTK DC50 (nM) column The Dmax values represent the maximum amount of BTK degradation observed upon compound treatment compared to DMSO only treated samples. The dMax (%) values are reported in Table 2 in the hWB BTK dMax (%) column.

BTK in mouse bone marrow = BTK in mouse bone marrow (Mus musculus (Mouse), UniProt P35991); assay: Mouse Bone Marrow Assay (MSD ELISA of BTK degradation in mouse bone marrow); assay type: in vivo; conditions: female C57BL/6J mice, single dose of Dose A, bone marrow collected after 24 hours, % remaining BTK in vehicle versus treated samples
Chain of BTK in mouse bone marrow (P35991 whole entry): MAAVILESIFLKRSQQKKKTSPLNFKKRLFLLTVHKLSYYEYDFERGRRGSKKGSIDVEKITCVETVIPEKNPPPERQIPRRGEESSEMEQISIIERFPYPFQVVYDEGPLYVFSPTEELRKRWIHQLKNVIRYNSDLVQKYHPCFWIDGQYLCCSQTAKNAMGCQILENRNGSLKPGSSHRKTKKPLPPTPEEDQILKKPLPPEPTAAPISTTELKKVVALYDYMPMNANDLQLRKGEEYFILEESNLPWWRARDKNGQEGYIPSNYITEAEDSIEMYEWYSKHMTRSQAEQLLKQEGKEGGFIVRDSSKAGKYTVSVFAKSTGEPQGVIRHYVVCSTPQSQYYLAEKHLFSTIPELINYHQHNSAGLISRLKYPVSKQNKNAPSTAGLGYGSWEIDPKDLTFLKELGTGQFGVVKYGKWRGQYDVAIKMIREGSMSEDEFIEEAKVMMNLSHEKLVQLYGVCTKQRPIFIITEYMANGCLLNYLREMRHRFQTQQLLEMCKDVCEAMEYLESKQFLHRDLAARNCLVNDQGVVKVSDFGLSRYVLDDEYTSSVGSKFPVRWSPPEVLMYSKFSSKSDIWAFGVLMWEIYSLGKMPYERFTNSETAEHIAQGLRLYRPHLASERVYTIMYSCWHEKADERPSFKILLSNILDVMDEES
Procedure: Female C57BL/6J mice (Jackson Laboratories) were used for this study. Compounds or vehicle/control were prepped with EtOH; PEG-400; Phosal 53 MCT (10:30:60, v/v). Four mice were tested per compound or vehicle/control. On Day 1, mice were administered a single dose of Dose A. On Day 2 (after 24 hours), tissue (bone marrow) was collected from one hind leg per mouse.
An MSD (Meso Scale Discovery) ELISA (enzyme-linked immunosorbent assay) based assay was used to determine BTK degradation in mouse bone marrow. The following materials and equipment were used: 10% NP40 solution (nonionic polyoxyethylene surfactant, ThermoFisher, cat no. 28324); protease inhibitor mini tablet (Roche, cat no. 05 892 970 001); PhosphoSTOP™ tablet (Roche, cat no. 04 906 837 001); Pierce™ BCA Protein Assay Kit (Thermofisher, Cat No. 23225); Precellys® 2 mL lysing tube with 2.8 mm beads (VWR, cat no. 10032-756); Bertin Precellys® 24/Cryolys ® cooling system; 96-well MSD streptavidin pre-coated plates (MSD, cat no. L15SA-1); MSD Blocker A (MSD, cat no. R93BA-4); capture antibody, biotinylated BTK mAb (BD Biosciences, cat no. 624008; custom order); primary detection antibody, BTK RpAb (rabbit polyclonal antibody, CST, cat no. 8547S, D3H5 clone); secondary detection antibody, anti-Rabbit-Sulfo-Tag (MSD, cat no. R32AB-1); read Buffer, 4× (MSD, cat no. R92TC-1); recombinant BTK protein (Thermofisher, cat no. PR5442A); MSD Tris Wash Buffer (10×) (MSD, cat no. R61TX-1); PBS (phosphate-buffered saline); deionized water (diH2O); Lysis Buffer [0.2% NP40 in PBS+Protease Inhibitor tablet (1 tablet/10 mL)+PhosphoSTOP tablet (1 tablet/10 mL)]; 3% MSD Blocker A [MSD Blocker A+450 mL diH2O+50 mL]; and 10× MSD Tris Wash Buffer.
Lysis buffer [(PBS+0.2% NP40+PI (protease inhibitor)+PhosphoSTOP)]was prepared and put on ice until it was fully cold. Ice cold lysis buffer […] was added to each Precellys® tube containing beads and bone marrow sample. Sample tubes were transferred into Precellys® machine and homogenized using 5000 rpm -2×20 seconds. The sample lysates were centrifuged at 14,000 rpm for 20 minutes at 4° C. after homogenizing.
The protein concentration was determined using Pierce™ BCA Protein Assay Kit following manufacturer's recommended protocol. The protein normalized working solution was prepared, using 30 μg protein per sample lysate for assay.
A 300 ng/ml working stock solution of recombinant BTK protein in lysis buffer was prepared, and the sample was serially diluted at 3-fold dilution (10-point assay, highest concentration was 300 ng/mL and lowest concentration was 0.015 ng/mL)
MSD plate coating: Coating antibody (biotinylated-BTK mAb) stock solution was prepared at 1 μg/mL in PBS buffer. 50 μL/well capture antibody (Biotinylated BTK mAb) solution was added, and the plates were shaken gently at ambient temperature for two hours. The plates were washed 3 times with 1× MSD Tris Wash Buffer in a plate washer (300 μL/well), and the plates were blocked with 3% MSD Blocker A (150 μL/well). The plates were incubated for an additional 1-2 hours at ambient temperature with gentle shaking. The plates were washed 3 times with 1× MSD wash buffer using plate washer. Bone marrow lysates (30 μg) at a final volume of 50 μL/well were added into the plates. The serially diluted standard samples were added to the same plates at a final volume of 50 μL/well. The plates were incubated overnight at 4° C. with gentle shaking.
The plates were washed three times with 1× MSD wash buffer (prepared from 10× concentration buffer) using plate washer. Primary detection antibody at 50 μL/well was added (BTK RpAb; 1:1000 dilution in 1% MSD Blocker A). The plates were incubated for two hours at ambient temperature with gentle shaking. The plates were washed three times with 1× MSD wash buffer using plate washer. Anti-Rabbit-SULFO-TAG secondary antibodies (50 μl/well) were added, 1:500 diluted in 1% MSD Blocker A, and the plates were incubated for one to two hours at ambient temperature. […]

Chain of BTK protein in human whole blood (Q06187 whole entry): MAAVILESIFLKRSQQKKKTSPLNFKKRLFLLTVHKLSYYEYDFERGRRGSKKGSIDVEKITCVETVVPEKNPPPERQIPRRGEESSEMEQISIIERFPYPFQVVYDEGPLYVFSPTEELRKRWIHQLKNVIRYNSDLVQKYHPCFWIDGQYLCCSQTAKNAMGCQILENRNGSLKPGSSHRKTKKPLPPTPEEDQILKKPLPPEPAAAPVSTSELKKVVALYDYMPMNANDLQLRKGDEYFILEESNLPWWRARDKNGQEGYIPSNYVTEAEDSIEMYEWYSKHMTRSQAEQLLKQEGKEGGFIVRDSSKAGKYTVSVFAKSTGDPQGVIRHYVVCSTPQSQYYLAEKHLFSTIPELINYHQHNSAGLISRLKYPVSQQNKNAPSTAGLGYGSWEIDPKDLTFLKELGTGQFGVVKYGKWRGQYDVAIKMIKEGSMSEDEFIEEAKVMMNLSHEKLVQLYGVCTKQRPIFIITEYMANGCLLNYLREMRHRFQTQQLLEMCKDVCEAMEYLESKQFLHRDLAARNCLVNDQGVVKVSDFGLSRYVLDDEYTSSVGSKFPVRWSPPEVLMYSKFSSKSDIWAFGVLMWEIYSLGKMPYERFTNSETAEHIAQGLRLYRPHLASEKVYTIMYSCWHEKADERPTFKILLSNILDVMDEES

Row | DC50 [1] | Mouse Bone Marrow (%), % remaining BTK (BTK in mouse bone marrow) | SMILES
1 | 3.04 nM | 9% | Cc1c([C@@H](C)NC(=O)c2nc(C(C)(C)C)no2)ccc(-c2cc(Nc3ccc(N4CCN(CCc5ccc(N6CCC(=O)NC6=O)cc5)C[C@@H]4C)cn3)ncn2)c1F [Example 10, 3-tert-butyl-N-[(1R)-1-{4-[6-({5-[(2S)-4-{2-[4-(2,4-dioxo-1,3-diazinan-1-yl)phenyl]ethyl}-2-methylpiperazin-1-yl]pyridin-2-yl}amino)pyrimidin-4-yl]-3-fluoro-2-methylphenyl}ethyl]-1,2,4-oxadiazole-5-carboxamide]
2 | 4.31 nM | 29% | Cc1c([C@@H](C)NC(=O)c2nc(C(C)(C)C)no2)ccc(-c2cc(Nc3ccc(N4CCN(CCc5ccc(N6CCC(=O)NC6=O)cc5)CC4)cn3)ncn2)c1F [Example 11, 3-tert-butyl-N-{(1R)-1-[4-(6-{[5-(4-{2-[4-(2,4-dioxo-1,3-diazinan-1-yl)phenyl]ethyl}piperazin-1-yl)pyridin-2-yl]amino}pyrimidin-4-yl)-3-fluoro-2-methylphenyl]ethyl}-1,2,4-oxadiazole-5-carboxamide]
